Results reported in patent publication US6416733B1, “Radiopharmaceuticals for imaging infection and inflammation” (Bristol-Myers Squibb Pharma Company, priority 1996, dated 2002).
pKi: −log10 of the molar value.

What follows are compounds tested against T1, PMN LTB4 receptor (Homo sapiens, UniProt Q15722) (assay: LTB4 Human Neutrophil (PMN) Binding Assay). Details: read-out: Ki, affinity for LTB4 (receptor).
T1 construct: endogenous in cells; host or cells: neutrophils (PMN) isolated from heparinized blood by ficoll gradient and dextran sedimentation
Excerpt: LTB4 Human Neutrophil (PMN) Binding Assay
LTB4 for the PMN LTB4 receptor.

T1 sequence (Q15722 whole entry): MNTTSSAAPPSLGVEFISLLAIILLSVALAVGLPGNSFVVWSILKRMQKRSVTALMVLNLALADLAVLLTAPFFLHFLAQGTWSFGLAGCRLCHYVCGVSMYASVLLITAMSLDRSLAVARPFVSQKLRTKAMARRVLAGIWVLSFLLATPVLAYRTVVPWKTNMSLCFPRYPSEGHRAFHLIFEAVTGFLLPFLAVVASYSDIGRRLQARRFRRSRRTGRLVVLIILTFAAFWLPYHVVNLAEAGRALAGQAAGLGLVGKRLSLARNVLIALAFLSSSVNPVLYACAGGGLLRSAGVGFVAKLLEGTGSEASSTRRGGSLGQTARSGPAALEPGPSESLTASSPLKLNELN

pKi | SMILES
8.10 | CCc1cc(-c2ccc(F)cc2)c(O)cc1OCCCCC(C)(C)CNC(=O)c1ccc(N/N=C/c2ccccc2)nc1 [IIa]
7.28 | O=C(CCCCCOc1cc(-c2ccc3c(c2)OCO3)cc(-c2ccccc2)n1)NC(Cc1ccc(OCCCNC(=O)c2ccc(N/N=C/c3ccccc3S(=O)(=O)O)nc2)cc1)C(=O)O (stereo not drawn) [Reagent IV]
7.39 | O=C(CCCCCOc1cc(-c2ccc3c(c2)OCO3)cc(-c2ccccc2)n1)NC(Cc1ccc(O)cc1)C(=O)O (stereo not drawn) [Compound III]
